Results: BindingDB's records for doi:10.1016/j.bmcl.2005.08.114 (Wyeth Research, 2005)

Assay: Reduction of viral RNA and protein in Huh7 cells containing HCV sub-genomic replicon

- EC50: 3.2 µM
Structure (SMILES): CCC[C@]1(CC(=O)O)OCCc2c1sc1c(C)cc(F)c(C#N)c21 [((R)-5-cyano-6-fluoro-8-methyl-1-propyl-3,4-dihydro-1H-benzo[4,5]thieno[2,3-c]pyran-1-yl)-acetic acid]
